How the values were obtained:
[1] = target: MSP1-42 (Plasmodium falciparum, UniProt Q8I0U8); assay: Binding of native merozoite proteins to heparin-agarose beads with soluble inhibitors; parameters: proteolytically processed into 83 kDa, 30 kDa, 38 kDa and a C-terminal 42kDa (MSP1-42) fragment; endogenous in cells; host or cells: P. falciparum schizont-stage cultures, Triton X-100 extract; species or system P. falciparum; settings: soluble inhibitor 200 μg/mL
Source text: Synchronized schizont stage (40-48 hr, 5-8% parasitemia) cultures were used for protein extraction. Uninfected erythrocytes were lysed with 0.15% saponin (Kodak) on ice for ten minutes. Remaining pellets were washed three times with cold HT-PBS. Protein from schizonts was extracted with 5 times volume of 1% TritonX100 (TX100) (Sigma-Aldrich, Australia), HT-PBS with protease inhibitors (Roche). Insoluble components were pelleted by centrifugation and supernatants collected. Schizont TX100 extracted proteins were bound to heparin-agarose beads (Sigma-Aldrich, Australia) as previously described. Heparin-agarose beads were washed once with 1% casein in PBS, once in PBS, and then blocked with 1% casein in PBS overnight at 4° C. TX100 merozoite protein extracts where incubated with beads containing 0.1% casein and 200 μg/mL of test inhibitor, or PBS as control, overnight at 4° C.; 50 μL of packed beads and 100 μL protein and inhibitor were used or each test sample. Inhibitors used were heparin and CSC. Unbound proteins in the supernatant were collected through Micro Bio-Spin Chromatography Columns (Bio-Rad). After incubation, beads were washed five times with PBS containing 0.1% casein and 1% Triton X-100. Bound proteins were eluted from beads with 50 μL of warmed reducing sample buffer. Bound and unbound proteins were separated by SDS-PAGE under reducing conditions and blotted onto membranes for probing with antibody detection with anti-MSP1 or anti-EBA175. 36. Baum J, Chen L, Healer J, Lopaticki S, Boyle M, et al. (2009) Reticulocyte-binding protein homologue 5—an essential adhesin involved in invasion of human erythrocytes by Plasmodium falciparum: Int J Parasitol 39: 371-380.

[2] = system: P. falciparum 3D7 parasites; assay: Time course of schizont rupture and merozoite invasion/ring formation; assay type: cell-based, Plasmodium falciparum; settings: 100 μg/mL
Protocol: 50 μL of synchronous 3D7 parasites at high parasitemia (5-10%), at approximately 32 hrs trophozoites were incubated as for GIAs with or without inhibitors (100 μg/mL). From approximately 44-48 hr schizonts parasite samples were collected, every 3 hrs for 15 hrs. Cells were stained and analysed as for GIAs to evaluate parasitemia and parasite stage.
To define the mechanism of action of heparin and heparin-like molecules Applicant performed time-course studies of schizont rupture, merozoite invasion and intra-erythrocytic development of P. falciparum in the presence of heparin. Parasite stages were evaluated using flow-cytometry, differentiating between late stage trophozoites and schizont versus ring stage parasites with ethidium bromide staining. […] No inhibition of infra-erythrocytic growth was observed (data not shown).

Sequence of MSP1-42 (Q8I0U8 1327-1699): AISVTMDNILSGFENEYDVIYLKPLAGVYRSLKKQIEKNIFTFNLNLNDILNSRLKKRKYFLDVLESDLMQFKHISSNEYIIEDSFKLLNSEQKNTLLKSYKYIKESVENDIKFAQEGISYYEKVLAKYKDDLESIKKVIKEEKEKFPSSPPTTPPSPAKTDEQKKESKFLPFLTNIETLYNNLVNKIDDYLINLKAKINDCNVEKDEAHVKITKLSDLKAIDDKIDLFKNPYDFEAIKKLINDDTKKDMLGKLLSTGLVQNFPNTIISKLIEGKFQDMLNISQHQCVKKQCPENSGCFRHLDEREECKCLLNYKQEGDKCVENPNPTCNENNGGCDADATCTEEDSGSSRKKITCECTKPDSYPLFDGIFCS

Substance: Heparin
- inhibition of native MSP1-42 binding to heparin-agarose beads [1]: effectively inhibited
- rates of merozoite invasion and ring formation [2]: very low
- schizont rupture compared to control [2]: some delay, but not complete inhibition
- inhibition of intra-erythrocytic growth ([2]; data not shown): No inhibition

From patent publication US20120108538A1, “SULFATED POLYSACCHARIDES HAVING ANTIPLASMODIAL ACTIVITY AND METHODS AND PRODUCTS FOR IDENTIFYING ANTIPLASMODIAL ACTIVITY” (priority 2009, published 2012)
